Measurements reported in patent US11718620B2, “Method for treating a cancer mediated by abnormality of multi-kinases” (TransThera Sciences (Nanjing), Inc., priority 2016, dated 2023).
pIC50: −log10 of the molar value.

Legend:
Aurora B = Aurora B (Homo sapiens, UniProt Q96GD4); experiment: Aurora B enzymatic activity test, FAM-labeled peptide, Caliper; assay type: biochemical; conditions: FAM-labeled peptide substrate, read-out: Kinase-inhibiting activity IC50 Aurora B
Method: (§1) Test samples: Compounds in the present invention (the sequence numbers and structures thereof are shown in Table 1), dilution concentration: 0.03 μM-3 μM, a total of 10 concentration gradients.
(§2) Test method: enzymatic activity tests of Aurora kinase (including Aurora A and Aurora B) and VEGFR2 (KDR) were performed using a multi-function microplate reader.
(§3) a) 96-well plates, 10 dose groups, 3-fold serial dilutions, each well was added with DMSO, maximal concentration of 500 μM (50-fold compound).
(§4) b) 384-well plates, diluted with 1× kinase buffer (50 mM HEPES, pH 7.5; 0.0015% Brij-35; 2 mM DTT), each well containing 5× compound dissolved in 5 μL of 10% DMSO. Each well of the negative control contains 5 μL of 1× kinase buffer containing 10% DMSO.
(§5) Aurora A, Aurora B and KDR were dissolved in 1× kinase buffer and prepared as a 2.5× enzyme solution. After the compound in various concentrations was reacted with 2.5× enzyme solution at room temperature for 10 min, the FAM-labeled peptide substrate and ATP were added to initiate reaction. After incubation for 40 minutes, 25 μL of terminal solution (100 mM HEPES, pH 7.5; 0.015% Brij-35; 0.2% Coating Reagent #3; 50 mM EDTA) was added to stop the reaction, and the final data were read by Caliper.

[1] = system: HCC70 breast cancer cells; experiment: Cell proliferation, Cell Titer-Glo; assay type: cell-based; conditions: Homo sapiens, 72 hours, read-out: Cellular inhibitory activity IC50 HCC70
Method: (§6) Test method: The effect of compounds on cell proliferation of different cell lines was examined by Cell Titer-Glo method.
(§7) Each cell line was inoculated into a 96-well plate one day in advance, and after overnight incubation, drugs in different concentrations were added to a final concentration of 0-10000 nM, 3-5 folds dilution, for a total of 10 concentration points. After incubation for 72 hours, the mixture was added with Cell titer-Glo reagent equilibrated at room temperature, and shaken to incubation for 10 min, and then allowed to stand at room temperature for 2 min to stabilize the light signal. The multi-function microplate reader was used to read data from each well and analyze it.

[2] = system: HCC1954 breast cancer cells; experiment: Cell proliferation, Cell Titer-Glo; assay type: cell-based; conditions: Homo sapiens, 72 hours, read-out: Cellular inhibitory activity IC50 HCC1954
Method: as §6, §7

[3] = system: BT-549 breast cancer cells; experiment: Cell proliferation, Cell Titer-Glo; assay type: cell-based; conditions: Homo sapiens, 72 hours, read-out: Cellular inhibitory activity IC50 BT-549
Method: as §6, §7

[4] = system: HCC38 breast cancer cells; experiment: Cell proliferation, Cell Titer-Glo; assay type: cell-based; conditions: Homo sapiens, 72 hours, read-out: Cellular inhibitory activity IC50 HCC38
Method: as §6, §7

KDR(VEGFR2) = KDR(VEGFR2) (Homo sapiens, UniProt P35968); experiment: KDR enzymatic activity test, FAM-labeled peptide, Caliper; assay type: biochemical; conditions: FAM-labeled peptide substrate, read-out: Kinase-inhibiting activity IC50 KDR(VEGFR2)
Method: as §1, §2, §3, §4, §5

Aurora A = biological target: T1, Aurora A (Homo sapiens, UniProt O14965); experiment: Aurora A enzymatic activity test, FAM-labeled peptide, Caliper; assay type: biochemical; conditions: FAM-labeled peptide substrate, read-out: Kinase-inhibiting activity IC50 Aurora A
T1 sequence (O14965 1-403): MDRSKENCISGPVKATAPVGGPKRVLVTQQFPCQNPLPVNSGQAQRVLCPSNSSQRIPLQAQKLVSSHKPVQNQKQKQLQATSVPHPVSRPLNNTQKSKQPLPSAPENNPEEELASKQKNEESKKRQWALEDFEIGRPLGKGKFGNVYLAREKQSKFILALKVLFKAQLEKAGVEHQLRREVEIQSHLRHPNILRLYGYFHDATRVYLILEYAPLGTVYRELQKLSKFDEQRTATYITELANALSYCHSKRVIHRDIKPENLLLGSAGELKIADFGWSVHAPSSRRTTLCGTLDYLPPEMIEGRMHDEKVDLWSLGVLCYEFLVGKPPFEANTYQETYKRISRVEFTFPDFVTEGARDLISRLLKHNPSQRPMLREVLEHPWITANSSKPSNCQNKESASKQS
Method: as §1, §2, §3, §4, §5

KG-1 Leukemic cells = experiment: Cell proliferation, Cell Titer-Glo; assay type: cell-based; conditions: 72 hours, read-out: Cellular inhibitory activity IC50 KG-1
Method: as §6, §7

Kasumi-1 Leukemic cells = experiment: Cell proliferation, Cell Titer-Glo; assay type: cell-based; conditions: Homo sapiens, 72 hours, read-out: Cellular inhibitory activity IC50 Kasumi-1
Method: as §6, §7

[5] = system: OVCAR-8 ovarian cancer cells; experiment: Cell proliferation, Cell Titer-Glo; assay type: cell-based; conditions: Homo sapiens, 72 hours, read-out: Cellular inhibitory activity IC50 OVCAR-8
Method: as §6, §7

[6] = system: OVCAR-3 ovarian cancer cells; experiment: Cell proliferation, Cell Titer-Glo; assay type: cell-based; conditions: Homo sapiens, 72 hours, read-out: Cellular inhibitory activity IC50 OVCAR-3
Method: as §6, §7

A549 Lung cancer cells = experiment: Cell proliferation, Cell Titer-Glo; assay type: cell-based; conditions: Homo sapiens, 72 hours, read-out: Cellular inhibitory activity IC50 A549
Method: as §6, §7

[7] = system: MDA-MB-468 breast cancer cells; experiment: Cell proliferation, Cell Titer-Glo; assay type: cell-based; conditions: Homo sapiens, 72 hours, read-out: Cellular inhibitory activity IC50 MDA-MB-468
Method: as §6, §7

[8] = system: Caov-3 ovarian cancer cells; experiment: Cell proliferation, Cell Titer-Glo; assay type: cell-based; conditions: Homo sapiens, 72 hours, read-out: Cellular inhibitory activity IC50 Caov-3
Method: as §6, §7

Hep3B liver cancer cells = experiment: Cell proliferation, Cell Titer-Glo; assay type: cell-based; conditions: Homo sapiens, 72 hours, read-out: Cellular inhibitory activity IC50 Hep3B
Method: as §6, §7

[9] = system: TOV-112D ovarian cancer cells; experiment: Cell proliferation, Cell Titer-Glo; assay type: cell-based; conditions: Homo sapiens, TOV112D, 72 hours, read-out: Cellular inhibitory activity IC50 TOV-112D
Method: as §6, §7

[10] = system: A2780 ovarian cancer cells; experiment: Cell proliferation, Cell Titer-Glo; assay type: cell-based; conditions: Homo sapiens, 72 hours, read-out: Cellular inhibitory activity IC50 A2780
Method: as §6, §7

[11] = system: D4475 breast cancer cells; experiment: Cell proliferation, Cell Titer-Glo; assay type: cell-based; conditions: 72 hours, read-out: Cellular inhibitory activity IC50 D4475
Method: as §6, §7

Chain of Aurora B (Q96GD4 whole entry): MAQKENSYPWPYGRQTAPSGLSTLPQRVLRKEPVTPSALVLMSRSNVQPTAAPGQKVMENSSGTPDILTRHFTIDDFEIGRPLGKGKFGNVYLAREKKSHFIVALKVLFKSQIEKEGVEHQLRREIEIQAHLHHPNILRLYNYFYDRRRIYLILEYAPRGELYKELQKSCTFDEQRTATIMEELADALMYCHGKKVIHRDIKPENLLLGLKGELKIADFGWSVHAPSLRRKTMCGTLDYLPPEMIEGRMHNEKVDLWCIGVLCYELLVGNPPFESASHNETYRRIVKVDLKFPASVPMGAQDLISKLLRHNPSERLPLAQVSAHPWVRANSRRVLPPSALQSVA
Chain of KDR(VEGFR2) (P35968 20-1356): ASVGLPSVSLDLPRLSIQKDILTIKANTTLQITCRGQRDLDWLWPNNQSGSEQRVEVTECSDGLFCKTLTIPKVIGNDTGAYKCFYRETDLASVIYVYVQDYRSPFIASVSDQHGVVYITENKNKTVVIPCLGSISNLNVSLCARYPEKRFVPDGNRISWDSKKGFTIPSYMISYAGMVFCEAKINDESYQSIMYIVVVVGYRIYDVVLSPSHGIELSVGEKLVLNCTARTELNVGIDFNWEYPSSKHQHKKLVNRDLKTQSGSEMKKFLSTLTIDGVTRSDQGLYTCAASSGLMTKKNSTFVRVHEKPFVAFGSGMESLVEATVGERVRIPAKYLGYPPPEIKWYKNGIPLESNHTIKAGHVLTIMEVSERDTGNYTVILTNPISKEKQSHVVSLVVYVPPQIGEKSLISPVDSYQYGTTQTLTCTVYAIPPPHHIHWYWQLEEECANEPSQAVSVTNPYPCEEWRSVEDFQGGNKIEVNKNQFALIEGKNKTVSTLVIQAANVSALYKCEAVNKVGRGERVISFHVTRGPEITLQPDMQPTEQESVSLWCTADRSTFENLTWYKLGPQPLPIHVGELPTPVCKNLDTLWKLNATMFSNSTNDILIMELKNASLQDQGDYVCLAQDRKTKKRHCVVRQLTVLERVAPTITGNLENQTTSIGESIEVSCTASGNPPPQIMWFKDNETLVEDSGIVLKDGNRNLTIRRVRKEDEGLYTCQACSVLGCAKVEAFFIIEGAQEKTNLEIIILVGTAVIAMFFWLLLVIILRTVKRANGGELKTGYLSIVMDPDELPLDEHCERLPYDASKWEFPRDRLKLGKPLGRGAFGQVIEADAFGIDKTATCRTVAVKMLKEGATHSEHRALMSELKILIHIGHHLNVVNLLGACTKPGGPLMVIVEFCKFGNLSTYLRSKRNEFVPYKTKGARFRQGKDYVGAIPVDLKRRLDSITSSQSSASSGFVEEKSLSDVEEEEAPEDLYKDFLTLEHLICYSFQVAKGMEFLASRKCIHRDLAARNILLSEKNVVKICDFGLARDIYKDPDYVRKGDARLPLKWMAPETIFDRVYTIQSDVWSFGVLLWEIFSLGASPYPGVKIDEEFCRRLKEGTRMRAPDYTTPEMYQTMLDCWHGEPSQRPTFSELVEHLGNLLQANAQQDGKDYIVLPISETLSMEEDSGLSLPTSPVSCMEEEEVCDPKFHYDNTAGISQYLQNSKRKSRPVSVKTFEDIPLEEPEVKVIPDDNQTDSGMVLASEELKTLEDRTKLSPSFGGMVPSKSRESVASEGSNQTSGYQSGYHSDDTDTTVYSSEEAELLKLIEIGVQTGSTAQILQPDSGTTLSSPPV

Row | SMILES | pIC50 (Aurora B) | pIC50 [1] | pIC50 [2] | pIC50 [3] | pIC50 [4] | pIC50 (KDR(VEGFR2)) | pIC50 (Aurora A) | pIC50 (KG-1 Leukemic cells) | pIC50 (Kasumi-1 Leukemic cells) | pIC50 [5] | pIC50 [6] | pIC50 (A549 Lung cancer cells) | pIC50 [7] | pIC50 [8] | pIC50 (Hep3B liver cancer cells) | pIC50 [9] | pIC50 [10] | pIC50 [11]
1 | CCN1CCN(Cc2cc3c(cn2)C(c2ccccc2Cl)=Nc2c(n[nH]c2C)N3)CC1 [Compound 33] | 8.24 | 6.06 | 6.27 | 6.38 | 6.15 | 8.80 | 8.32 |  |  |  |  |  |  |  |  |  |  | 
2 | Cc1[nH]nc2c1N=C(c1ccccc1Cl)c1cnc(N3CCS(=O)(=O)CC3)cc1N2 [Compound 34] | 8.12 |  |  |  |  | 8.64 | 8.89 | 7.35 | 7.09 |  |  |  |  |  |  |  |  | 
3 | Cc1[nH]nc2c1N=C(c1ccccc1Cl)c1cnc(CN3CCOCC3)cc1N2 [Compound 35] | 7.82 |  | 6.14 | 6.29 |  | 8.07 | 8.32 |  | 7.10 | 6.21 | 6.58 | 6.24 | 5.99 | 6.58 |  |  |  | 
4 | CCc1cc2c(cn1)C(c1ccccc1Cl)=Nc1c(n[nH]c1C)N2 [Control drug 1-2, reference compound] | 8.40 | 5.82 | 6.05 | 6.18 | 5.96 | 8.49 | 8.80 | 6.34 | 6.90 | 6.21 | 6.09 | 5.86 | 5.86 | 6.44 | 6.61 | 5.60 | 6.19 | 6.35
